Assay results reported in US11207312B2, “Metallo-beta-lactamase inhibitors and methods of use thereof” (priority 2017, dated 2021).

Legend:
[1] = tested on: Escherichia coli expressing NDM-1 (CLB30016); assay type: cell-based; conditions: with imipenem 1 μg/ml; 95% inhibition of bacterial growth
Method in brief: (§1)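 Clinical MBL-producing strains grown overnight at 35° C, diluted 1:100 into CAMHB, then exposed to test compound with imipenem at 1 μg/ml for 22–24 h at 35° C. Absorbance read-out; MITC95 is the lowest compound concentration giving 95% growth inhibition with imipenem.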

[2] = tested on: Klebsiella pneumoniae expressing VIM-1 (IHMA599644); assay type: cell-based; conditions: with imipenem 1 μg/ml; 95% inhibition of bacterial growth
Method in brief: as §1

[3] = tested on: Serratia marcescens expressing IMP-1 (CL5741); assay type: cell-based; conditions: with imipenem 1 μg/ml; 95% inhibition of bacterial growth
Method in brief: as §1

[4] = tested on: P. aeruginosa MB9799 (efflux-, IMP-1 plasmid); assay type: cell-based, Pseudomonas aeruginosa; conditions: efflux − (MB9799) strain; imipenem at 2 μg/mL; in the presence of a class A, C, D serine β-lactamase inhibitor closely related to relebactam
Method in brief: (§2)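 Isogenic P. aeruginosa PAO1 strains (efflux+ and multiple-efflux-pump-disrupted) carrying plasmid IMP-1, with inducible AmpC, tested by broth microdilution. Imipenem and/or ceftazidime fixed, usually at CLSI breakpoint, plus fixed class A/C β-lactamase inhibitor; titrated MBL inhibitor concentration restoring susceptibility recorded and compared between strains as efflux fold difference.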

[5] = tested on: P. aeruginosa MB9798 (efflux+, IMP-1 plasmid); conditions: for MB9798 MITC95 P. aeruginosa uM Efflux WT: efflux + (MB9798) strain, imipenem at 2 μg/mL, in the presence of a class A, C, D serine β-lactamase inhibitor closely related to relebactam; for Efflux ratio: fold difference between efflux+ (MB9798) and efflux− (MB9799) strains
Method in brief: as §2

NDM-1 = NDM-1 (Klebsiella pneumoniae, UniProt C7C422); test: biochemical; assay type: biochemical; conditions: CCF2-FA fluorescence assay, 2 hours at 25° C.
NDM-1, sequence (C7C422 whole entry, looked up, species assumed): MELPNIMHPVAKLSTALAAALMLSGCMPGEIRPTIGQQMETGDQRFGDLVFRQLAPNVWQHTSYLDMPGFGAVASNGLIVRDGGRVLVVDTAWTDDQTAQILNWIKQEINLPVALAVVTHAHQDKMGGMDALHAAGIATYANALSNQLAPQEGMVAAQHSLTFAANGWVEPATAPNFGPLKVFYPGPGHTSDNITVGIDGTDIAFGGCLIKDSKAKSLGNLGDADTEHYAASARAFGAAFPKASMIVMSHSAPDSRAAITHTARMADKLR
Method in brief: (§3)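 Buffer 100 mM KH2PO4 pH 7, 0.005% Tween-20, 10 μM ZnSO4. NDM-1 1 pM, IMP-1 2 pM, VIM-1 30 pM final; CCF2-FA 1.25 μM. Cpd 20–0.00063 μM, 2 h, 25° C. Ex 405/Em 460 nm; IC50 via 4-parameter curve.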

VIM-2 = VIM-2 (Escherichia coli, UniProt Q5U7L7); test: biochemical; conditions: CCF2-FA fluorescence assay; read-out: VIM2 IC50
IMP-1 = IMP-1 (Serratia marcescens, UniProt P52699); test: biochemical; conditions: CCF2-FA fluorescence assay, 2 hours at 25° C.; read-out: IMP1 IC50
IMP-1, sequence (P52699 whole entry, looked up, species assumed): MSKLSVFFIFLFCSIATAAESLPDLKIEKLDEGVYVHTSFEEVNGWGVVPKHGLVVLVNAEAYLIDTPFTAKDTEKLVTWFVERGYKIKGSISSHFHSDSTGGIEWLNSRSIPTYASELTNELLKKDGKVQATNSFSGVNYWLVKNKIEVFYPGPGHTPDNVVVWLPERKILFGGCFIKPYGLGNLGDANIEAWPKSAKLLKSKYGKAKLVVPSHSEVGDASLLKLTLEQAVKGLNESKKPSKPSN
Method in brief: as §3

VIM-1 = VIM-1 (Pseudomonas aeruginosa (strain ATCC 15692 / DSM 22644 / CIP 104116 / JCM 14847 / LMG 12228 / 1C / PRS 101 / PAO1), UniProt A0A0F7KYQ8); test: biochemical; conditions: CCF2-FA fluorescence assay, 2 hours at 25° C.; read-out: VIM1 IC50
Method in brief: as §3

| SMILES | CLB30016 E. coli MITC95 NDM [1] | IHMA599644 K. pneumoniae MITC95 VIM [2] | CL5741 S. marcescens MITC95 IMP [3] | MB9799 MITC95 P. aeruginosa uM Efflux Mutant [4] | MB9798 MITC95 P. aeruginosa uM Efflux WT [5] | Efflux ratio [5] | IC50 (NDM-1) | IC50 (VIM-2) | IC50 (IMP-1) | IC50 (VIM-1) |
| --- | --- | --- | --- | --- | --- | --- | --- | --- | --- | --- |
| NC[C@@H](O)CNS(=O)(=O)c1ccc(N2CCC[C@@H](CN)C2)c(-c2nnn[nH]2)c1S(N)(=O)=O [Example 38, N1-((R)-3-amino-2-hydroxypropyl)-4-((S)-3-(aminomethyl)piperidin-1-yl)-3-(1H-tetrazol-5-yl)benzene-1,2-disulfonamide] | 0.20 µM | 0.78 µM | 0.78 µM | 0.78 µM | 3.13 µM | 4.00 | 6.3 nM | 2.11 nM | 20.6 nM | 0.67 nM |
| NC[C@@H](O)CNS(=O)(=O)c1ccc(N2CCC[C@H](CN)C2)c(-c2nnn[nH]2)c1S(N)(=O)=O [Example 39, N1-((R)-3-amino-2-hydroxypropyl)-4-((R)-3-(aminomethyl)piperidin-1-yl)-3-(1H-tetrazol-5-yl)benzene-1,2-disulfonamide] | 1.56 µM | 1.56 µM | 0.78 µM | 1.56 µM | 3.13 µM | 2.00 | 50.4 nM | 11.6 nM | 44.6 nM | 1.71 nM |
| NC[C@@H](O)CNS(=O)(=O)c1ccc(N2CCN(CCCO)CC2)c(-c2nnn[nH]2)c1S(N)(=O)=O [Example 40, (R)-N1-(3-amino-2-hydroxypropyl)-4-(4-(3-hydroxypropyl)piperazin-1-yl)-3-(1H-tetrazol-5-yl)benzene-1,2-disulfonamide] | 0.05 µM | 0.78 µM | 0.10 µM | 0.78 µM | 1.56 µM | 2.00 | 3.07 nM | 7.36 nM | 3.56 nM | 5.87 nM |
| NCCNS(=O)(=O)c1ccc(N2CCN(CCCO)CC2)c(-c2nnn[nH]2)c1S(N)(=O)=O [Example 41, N1-(2-aminoethyl)-4-(4-(3-hydroxypropyl)piperazin-1-yl)-3-(1H-tetrazol-5-yl)benzene-1,2-disulfonamide] | 0.10 µM | 1.56 µM | 0.10 µM | 0.39 µM | 1.56 µM | 4.00 | 5.98 nM | 14.8 nM | 6.04 nM | 11.5 nM |
| NC[C@@H](O)CNS(=O)(=O)c1ccc(N2CCC(CO)CC2)c(-c2nnn[nH]2)c1S(N)(=O)=O [Example 42, (R)-N1-(3-amino-2-hydroxypropyl)-4-(4-(hydroxymethyl)piperidin-1-yl)-3-(1H-tetrazol-5-yl)benzene-1,2-disulfonamide] | 3.13 µM | 6.25 µM | 3.13 µM | 1.56 µM | 1.56 µM | 1.00 | 0.45 nM | 0.71 nM | 0.47 nM | 0.16 nM |
| NCCNS(=O)(=O)c1ccc(N2CCC(CO)CC2)c(-c2nnn[nH]2)c1S(N)(=O)=O [Example 43, N1-(2-aminoethyl)-4-(4-(hydroxymethyl)piperidin-1-yl)-3-(1H-tetrazol-5-yl)benzene-1,2-disulfonamide] | 1.56 µM | 6.25 µM | 1.56 µM | 1.56 µM | 1.56 µM | 1.00 | 0.51 nM | 0.61 nM | 0.58 nM | 0.19 nM |
| NC[C@H](N)CNS(=O)(=O)c1ccc(N2CCC(CO)CC2)c(-c2nnn[nH]2)c1S(N)(=O)=O [Example 44, (S)-N1-(2,3-diaminopropyl)-4-(4-(hydroxymethyl)piperidin-1-yl)-3-(1H-tetrazol-5-yl)benzene-1,2-disulfonamide] | 3.13 µM | 6.25 µM | 3.13 µM | 1.56 µM | 3.13 µM | 2.00 | 0.36 nM | 0.63 nM | 0.56 nM | 0.06 nM |
| NCC(CN)NS(=O)(=O)c1ccc(N2CCC(CO)CC2)c(-c2nnn[nH]2)c1S(N)(=O)=O [Example 45, N1-(1,3-diaminopropan-2-yl)-4-(4-(hydroxymethyl)piperidin-1-yl)-3-(1H-tetrazol-5-yl)benzene-1,2-disulfonamide] | 1.56 µM | 3.13 µM | 3.13 µM | 1.56 µM | 1.56 µM | 1.00 | 0.27 nM | 0.74 nM | 0.52 nM | 0.23 nM |
| C[C@H](CN)NS(=O)(=O)c1ccc(N2CCC(CO)CC2)c(-c2nnn[nH]2)c1S(N)(=O)=O [Example 46, (R)-N1-(1-aminopropan-2-yl)-4-(4-(hydroxymethyl)piperidin-1-yl)-3-(1H-tetrazol-5-yl)benzene-1,2-disulfonamide] | 3.13 µM | 6.25 µM | 1.56 µM | 1.56 µM | 1.56 µM | 1.00 | 0.06 nM | 0.32 nM | 0.12 nM | 0.08 nM |
| NC[C@@H](O)CNS(=O)(=O)c1ccc(N2CCN(CCO)CC2)c(-c2nnn[nH]2)c1S(N)(=O)=O [Example 47, (R)-N1-(3-amino-2-hydroxypropyl)-4-(4-(2-hydroxyethyl)piper-azin-1-yl)-3-(1H-tetrazol-5-yl)benzene-1,2-disulfonamide] | 0.10 µM | 0.78 µM | 0.10 µM | 0.78 µM | 1.56 µM | 2.00 | 3.94 nM | 7.34 nM | 4.57 nM | 5.02 nM |
| NCCNS(=O)(=O)c1ccc(N2CCN(CCO)CC2)c(-c2nnn[nH]2)c1S(N)(=O)=O [Example 48, N1-(2-aminoethyl)-4-(4-(2-hydroxyethyl)piper-azin-1-yl)-3-(1H-tetrazol-5-yl)benzene-1,2-disulfonamide] | 0.05 µM | 0.39 µM | 0.05 µM | 0.39 µM | 1.56 µM | 4.00 | 1.52 nM | 15 nM | 5.59 nM | 7.23 nM |
| NC[C@H](N)CNS(=O)(=O)c1ccc(N2CCN(CCO)CC2)c(-c2nnn[nH]2)c1S(N)(=O)=O [Example 49, (S)-N1-(2,3-diaminopropyl)-4-(4-(2-hydroxyethyl)piper-azin-1-yl)-3-(1H-tetrazol-5-yl)benzene-1,2-disulfonamide] | 0.20 µM | 1.56 µM | 0.20 µM | 1.56 µM | 1.56 µM | 1.00 | 5.3 nM | 20.2 nM | 9.13 nM | 13.6 nM |
| CC(N)C1CCN(c2ccc(S(=O)(=O)NC[C@H](O)CN)c(S(N)(=O)=O)c2-c2nnn[nH]2)CC1 (stereo partly drawn) [Example 50, N1-((R)-3-amino-2-hydroxypropyl)-4-(4-(1-aminoethyl)piper-idin-1-yl)-3-(1H-tetrazol-5-yl)benzene-1,2-disulfonamide] | 0.39 µM | 0.78 µM | 0.78 µM | 0.39 µM | 0.78 µM | 2.00 | 4.14 nM | 4.12 nM | 2.11 nM | 0.15 nM |
